≈ marks a conversion by molar mass, not a printed value. Where “and” joins values, the source holds several entries; their conditions need not be identical. Equal entries are not always repeated. Where two headings read alike, the source gives them in different places.
Assays:
[1] = tested on: P. berghei ANKA GFP-Luc-SMcon sporozoites; experiment: P. berghei-luciferase liver stage bioluminescence assay (causal prophylactic mode) in HepG2-CD81 cells; type: cell-based, Plasmodium berghei; conditions: for Emax: 48 h, read-out: P.berghei-Luciferase Liver Stage Bioluminescence Assay: Maximum measured (%); for inhibition at 10 µM: read-out: P. berghei sporozoites Maximum inhibition %
Outline: (§1)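 HepG2-CD81 cells seeded onto compounds in DMSO, infected with P. berghei luciferase-expressing sporozoites; liver-stage growth read as luciferase bioluminescence after BrightGlo luciferin addition. Cytotoxicity measured in parallel on uninfected HepG2 plates via CellTiterGlo ATP luminescence.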

[2] = HepG2 cytotoxicity bioluminescence assay (CellTiterGlo, ATP); type: cell-based, human; conditions: human, uninfected HepG2-CD81 cells; for IC50 at 72 h: two biological replicates listed in one cell; for EC50 at 72 h: uninfected HepG2, ATP bioluminescence
Outline: as §1

HepG2 cells [3] = experiment: as above; type: cell-based, human; conditions: for IC50 / HepG2 Cytotoxicity Bioluminescence Assay: Maximum measured (%): two biological replicates listed in one cell
Outline: as §1

P. falciparum W2 [4] = experiment: T0 [3H]-hypoxanthine drug susceptibility assay; type: cell-based; conditions: Plasmodium falciparum; for IC50: W2, read-out: W2 IC50; for IC90: W2, read-out: W2 IC90
[5] = tested on: P. falciparum ARC08-22 (4G); experiment: T0 [3H]-hypoxanthine drug susceptibility assay, artemisinin-resistant clone (C580Y); type: cell-based, Plasmodium falciparum; conditions: preliminary, W2 as comparative sensitive strain
[6] = tested on: P. falciparum PL08-009 (5C); experiment: as above; type: cell-based, Plasmodium falciparum; conditions: preliminary, W2 as comparative sensitive strain
P. falciparum NF54 [7] = tested on: P. falciparum NF54; design: method as in Coertzen et al. (2018); conditions: pLDH, 48 h; ref Coertzen et al. (2018); read-out: Metabolic IC50 NF54; cited from earlier work
P. falciparum Dd2 [8] = tested on: P. falciparum Dd2; design: method as in Coertzen et al. (2018); conditions: pLDH, 48 h; ref Coertzen et al. (2018); read-out: Metabolic IC50 Dd2; cited from earlier work
P. falciparum NF54 [9] = tested on: P. falciparum NF54; design: method as in Coertzen et al. (2018); conditions: SYBR Green I; ref Coertzen et al. (2018); read-out: Proliferative IC50 NF54; cited from earlier work
P. falciparum K1 [10] = tested on: P. falciparum K1; design: method as in Coertzen et al. (2018); conditions: SYBR Green I; ref Coertzen et al. (2018); read-out: Proliferative IC50 K1; cited from earlier work
P. falciparum W2 [11] = tested on: P. falciparum W2; design: method as in Coertzen et al. (2018); conditions: SYBR Green I; ref Coertzen et al. (2018); read-out: Proliferative IC50 W2; cited from earlier work
[12] = tested on: P. falciparum NF54 early stage gametocytes (>90% stage I–III); design: method as in Coertzen et al. (2018); conditions: read-out: Early Stage (EG, Luc 48 h) IC50; >90% stage I–III gametocytes; ref Coertzen et al. (2018); cited from earlier work
[13] = tested on: P. falciparum NF54 late stage gametocytes (>90% stage IV and V); design: method as in Coertzen et al. (2018); conditions: read-out: Late Stage (LG, Luc 72 h) IC50; >90% stage IV and V gametocytes; ref Coertzen et al. (2018); cited from earlier work
[14] = tested on: Pf CamWT, Cam3.II, CamWTC580Y, Cam3.IIC580Y, Cam3.IIRev; design: method as in Lanteri et al., 2014; conditions: ref Lanteri et al., 2014; read-out: mean IC50 across CamWT, Cam3.II and K13 transfected strains; cited from earlier work
P. falciparum W2 [15] = tested on: P. falciparum W2; design: method as in Lanteri et al., 2014; conditions: ref Lanteri et al., 2014; read-out: mean IC50 against W2; cited from earlier work
[16] = tested on: Chinese hamster ovarian (CHO) cells; conditions: read-out: Cytotoxicity EC50 CHO; MTT assay; ref Coertzen et al. (2018); cited from earlier work
HepG2 cells [17] = conditions: read-out: Cytotoxicity EC50 HepG2; ref Coertzen et al. (2018); cited from earlier work
P. falciparum NF54 [18] = experiment: Metabolic (parasite LDH) assay, asexual ring stage parasites, 48 h; type: cell-based; conditions: Plasmodium falciparum, pLDH, CQ-sensitive NF54
Outline: (§2)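 Synchronized ring-stage (>95%) parasites in human erythrocytes were treated with two-fold dilutions at 37 °C under 90% N2/5% CO2/5% O2, with DMSO <0.1%. SYBR Green I fluorescence was read after 96 h (1% parasitemia, 1% hematocrit). pLDH activity was read after 48 h (1.5–2% parasitemia, 2% hematocrit).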

P. falciparum Dd2 [19] = experiment: as above; type: cell-based; conditions: Plasmodium falciparum, pLDH, Dd2 CQ, pyrimethamine resistant
Outline: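 Two-fold serial dilutions on >95% ring-stage Dd2 parasites (1.5–2% parasitemia, 2% hematocrit) in Albumax II RPMI, final DMSO <0.1%, at 37°C under 90% N2/5% CO2/5% O2. Parasite LDH activity read after 48 h drug exposure for dose-response.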

P. falciparum K1 [20] = experiment: Proliferative (SYBR Green I) assay, asexual parasites, 96 h; type: cell-based; conditions: Plasmodium falciparum, ±SEM
Outline: as §2

P. falciparum NF54 [21] = experiment: as above; type: cell-based; conditions: Plasmodium falciparum, ±SEM
Outline: as §2

P. falciparum W2 [22] = experiment: as above; type: cell-based; conditions: Plasmodium falciparum, ±SEM
Outline: as §2

Cytotoxicity, MTT assay = type: cell-based; conditions: Chinese hamster, CHO cells
Description: (§3) Cytotoxicity (EC50) was determined against Chinese hamster ovarian (CHO) using a 3-(4,5-dimethylthiazol-2-yl)-2,5-diphenyltetrazolium bromide (MTT) assay and hepatocellular carcinoma cells (HepG2) using the Cytoselect LDH cytotoxicity assay kit (Cell Biolabs).

[23] = Cytotoxicity, Cytoselect LDH cytotoxicity assay kit; type: cell-based; conditions: human, HepG2 cells
Description: as §3

[24] = tested on: P. falciparum NF54 early stage gametocytes (>90% stage I–III); experiment: Gametocytocidal luciferase reporter assay, early stage, 48 h; type: cell-based; conditions: Plasmodium falciparum, NF54, 48 h, read-out: Early Stage (EG, Luc 48 h) IC50
Outline: (§4)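 Luciferase reporter P. falciparum line; gametocyte cultures treated with 50 mM NAG to remove asexual parasites. Early gametocytes (day 5, stage I–III) exposed 48 h to two-fold dilutions; late (day 10, stage IV–V) 72 h to 10-fold dilutions; 2% gametocytemia, 2% hematocrit, 37°C, 90% N2/5% CO2/5% O2.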

[25] = tested on: P. falciparum NF54 late stage gametocytes (>90% stage IV and V); experiment: Gametocytocidal luciferase reporter assay, late stage, 72 h; type: cell-based, Plasmodium falciparum
Outline: as §4

[26] = tested on: P. falciparum stage III/IV/V and mature stage V (>95% stage V) gametocytes; experiment: Stage-specificity and kill kinetics against late stage gametocytes, luciferase reporter line; type: cell-based; conditions: Plasmodium falciparum, 72 h treatment
Description: Late stage gametocytes, stage III, IV/V (10% stage III, 50% stage IV, 40% stage V population on day 10 post-induction) or mature stage V (>95% stage V on day 13 post-induction) were used to determine the differential stage specificity and kill kinetics (speed-of-action) of the compounds. Dose responses were determined using the luciferase reporter line, exposed to 10-fold serial drug dilutions for 72 h at 37°C under 90% N2, 5% CO2, and 5% O2 atmospheric conditions. […] Additionally, a drug washout step was included by replacing the drug-containing spent medium with fresh media (without drug) followed by a further 24 h incubation prior to measuring luciferase activity. […] Data are the average from a single independent biological experiment with technical triplicates, error bars indicate ±SD.

[27] = tested on: asexual P. falciparum NF54, Dd2, K1, W2; experiment: Asexual P. falciparum, metabolic (pLDH) and proliferative (SYBR Green I) platforms; type: cell-based; conditions: Plasmodium falciparum; read-out: IC50 for drug sensitive NF54 parasites across both assay platforms
Description: Data analysis was performed using GraphPad Prism 7.
The in vitro activities of the new derivatives were determined against drug sensitive NF54 and multi-drug resistant Dd2, K1, and W2 intraerythrocytic asexual P. falciparum malaria parasite strains using both a metabolic (parasite LDH) and a proliferative (SYBR Green I fluorescence) assay readout (Table 1).

[28] = design: method as in Haynes et al., 2006; conditions: ref Haynes et al., 2006; cited from earlier work
[29] = Plasmodium berghei, two biological replicates listed in one cell
[30] = Plasmodium berghei, HepG2, 48 h, liver stage, HepG2 host cells, luciferase after 48 h, ±SD, read-out: P. berghei sporozoites IC50
[31] = Plasmodium berghei, two biological replicates listed in one cell, read-out: P.berghei-Luciferase Liver Stage Bioluminescence Assay: IC50

| SMILES | Emax [1, 29] [%] | IC50 [1, 30] [nM] | IC50 [1, 31] [nM] | IC50 at 72 h [2] [nM] | EC50 at 72 h [2] [nM] | IC50 (P. falciparum W2 [4]) [nM] | IC90 (P. falciparum W2 [4]) [nM] | susceptibility of ARC08-22 (4G) clone (in words) [5] | IC50 (P. falciparum NF54 [7]) [nM] | IC50 (P. falciparum Dd2 [8]) [nM] | IC50 (P. falciparum NF54 [9]) [nM] | IC50 (P. falciparum K1 [10]) [nM] | IC50 (P. falciparum W2 [11]) [nM] | IC50 [12] [nM] | IC50 [13] [nM] | EC50 [16] [nM] | also measured |
| --- | --- | --- | --- | --- | --- | --- | --- | --- | --- | --- | --- | --- | --- | --- | --- | --- | --- |
| C[C@H]1[C@H](N2CCS(=O)(=O)CC2)O[C@@H]2O[C@@]3(C)CC[C@H]4[C@H](C)CC[C@@H]1[C@@]24OO3 [Artemisone 8, artemisone] | 92.1 | 28 | 27.4 | > 50000 | > 50000 | 1.69 ± 0.36 | 3.42 ± 0.45 | no indication of reduced susceptibility | 3 ± 0.8 | 2.7 ± 0.3 | 1.2 ± 0.4 | 1.01 ± 0.19 | 1.6 ± 0.4 | 1.94 ± 0.11 | 42.4 ± 3.3 | > 249000 | inhibition at 10 µM ([1]; Plasmodium berghei): 93.3 ± 1.76%; inhibition of liver stage parasites ([1]; maintained down to 3 μM, 12-point titrations starting from 10 μM and […]): > 75%; IC50 ([1]; read-out: P. berghei sporozoites IC50, liver stage, HepG2 host cells, luciferase after 48 h, ±SD): 28.3 ± 1.27 nM; IC50 ([1]; two biological replicates listed in one cell, listed as 8 Artemisone (GC003), read-out: P.berghei-Luciferase Liver Stage Bioluminescence Assay: IC50): 29.2 nM; HepG2 cytotoxicity IC50 (in words) (HepG2 cells [3]; at 25 μM (artemiside 7) and 50 μM (artemisone 8)): no measurable IC50 values; IC50 (HepG2 cells [3]): > 50000 nM; HepG2 Cytotoxicity Bioluminescence Assay: Maximum measured (%) (HepG2 cells [3]; listed as 8 Artemisone (GC003)): 11.8% and 16.0%; susceptibility of PL08-009 (5C) clone (in words) [6]: no indication of reduced susceptibility; IC50 [14]: 2.4 nM; IC50 (P. falciparum W2 [15]): 1.9 nM |
| CCN(CC)CCCC(C)Nc1ccnc2cc(Cl)ccc12 (stereo not drawn) [CQ, chloroquine] |  |  |  |  |  |  |  |  | 10 ± 1.6 | 251 ± 19.9 | 10 ± 3 | 154 ± 14 |  |  |  |  | EC50 (HepG2 cells [17]): 58.4 nM |
| C[C@H]1[C@H](N2CCN(C(=O)c3ccc(F)cc3)CC2)O[C@@H]2O[C@@]3(C)CC[C@H]4[C@H](C)CC[C@@H]1[C@@]24OO3 [Compound 28] | 101 | 114 ± 15.6 | 103 | 10200 | 8320 | 0.1 ± 0.03 | 0.19 ± 0.02 | no indication of reduced susceptibility |  |  |  |  |  |  |  |  | IC50 (P. falciparum NF54 [18]): 1.06 ± 0.19 nM; IC50 (P. falciparum Dd2 [19]): 1.5 ± 0.6 nM; IC50 (P. falciparum K1 [20]): 2.1 ± 1.1 nM; IC50 (P. falciparum NF54 [21]): 2.8 ± 0.2 nM; IC50 (P. falciparum W2 [22]): 2.7 ± 0.2 nM; EC50 (Cytotoxicity, MTT assay): 190000 nM; EC50 [23]: 190 nM; IC50 [24]: 19.5 ± 8.5 nM; IC50 ([25]; Plasmodium falciparum, NF54, 72 h, read-out: Late Stage (LG, Luc 72 h) IC50, >90% stage IV and V gametocytes, ±SEM): 0.4 to 0.7 nM; IC50 ([25]; read-out: Late Stage (LG, Luc 72 h) IC50, >90% stage IV and V gametocytes, ±SEM): 0.6 ± 0.3 nM; IC50 [26]: < 10 nM; inhibition at 10 µM ([1]; Plasmodium berghei, Conc. 10 μM): 104 ± 4.24%; IC50 ([1]; two biological replicates listed in one cell, listed as 28 (WHN-14), read-out: P.berghei-Luciferase Liver Stage Bioluminescence Assay: IC50): 125 nM; HepG2 Cytotoxicity Bioluminescence Assay: Maximum measured (%) (HepG2 cells [3]; listed as 28 (WHN-14)): 61.7% and 66.5%; IC50 (HepG2 cells [3]; listed as 28 (WHN-14)): 6440 nM; IC50 [27]: 1 to 2 nM |
| CC1CCC2C(C)C(NS(N)(=O)=O)OC3OC4(C)CCC1C32OO4 (stereo not drawn) [Sulfamide 11] |  |  |  |  |  | 4.87 ± 0.59 | 7.53 ± 0.23 |  | 10.9 ± 3.4 | 16.9 ± 2.6 | 3 ± 1 | 1.78 ± 0.26 | 2.04 ± 0.11 | 15 ± 2 | 419 ± 59.5 | 56000 ± 4600 | water solubility [28]: 294 µg/mL (≈ 811 µM) |

Source: publication PMC6967409 (Frontiers in Chemistry, 2020)
